Data: patent publication US7560569B2, “Bicycloamide derivative” (Kyorin Pharmaceutical Co., Ltd, priority 2004, dated 2009)

How the values were obtained:
[1] = biological target: plasma dipeptidylpeptidase IV (UniProt P27487); experiment: In vitro dipeptidylpeptidase IV inhibition (H-Gly-Pro-AMC hydrolysis, fluorometry); assay type: biochemical; conditions: plasma diluted 8-fold, H-Gly-Pro-AMC.HBr substrate, room temperature 20 minutes
Description: The concentration of free 7-amino-4-methyl-coumarin (AMC) generated by hydrolysis of H-Gly-Pro-AMC.HBr substrate by plasma dipeptidylpeptidase IV was determined by fluorometry.
A 20 μL of buffer (25 mmol/L hepes, 140 mmol/L sodium chloride, 1% bovine serum albumin, 80 mmol/L magnesium chloride hexahydrate, pH 7.4) containing each compound was added to 20 μL of plasma diluted 8-fold with saline in a well of a 96-well flat bottom plate. The plate was left at room temperature for 5 minutes and 10 μL of 0.1 mmol/L H-Gly-Pro-AMC.HBr solution was added to each well to initiate the reaction. […] Using a fluorescent plate reader, the free AMC concentration was determined by exciting the samples at 355 nm and measuring the fluorescence intensity at 460 nm.

[2] = biological target: T1, plasma dipeptidylpeptidase IV (Mus musculus, UniProt P28843); experiment: Inhibition of plasma dipeptidylpeptidase IV activity in mice by oral administration; assay type: in vivo; conditions: male ICR mice, 0.1 mg/mL at 10 mL/kg, plasma 30 minutes after administration vs before
T1 construct: The blood samples were centrifuged at 6000 rpm for 2 minutes to separate plasma; tissue Charles River Laboratories Japan; host or cells: plasma of male ICR mice
Description: Each compound was suspended in 0.3% sodium carboxymethylcellulose to a concentration of 0.1 mg/mL. The preparation was orally administered to 8-week old male ICR mice (Charles River Laboratories Japan) at a dose of 10 mL/kg. Using an EDTA 2K-treated capillary tube, blood samples were collected from the tail vein before administration and 30 minutes after administration. The blood samples were centrifuged at 6000 rpm for 2 minutes to separate plasma. […] The inhibition was determined from the decrease in the enzymatic activity from the initial activity (% inhibition={(activity before administration−activity after administration)/(activity before administration)}×100).

T1 sequence (P28843 37-760 limits assumed): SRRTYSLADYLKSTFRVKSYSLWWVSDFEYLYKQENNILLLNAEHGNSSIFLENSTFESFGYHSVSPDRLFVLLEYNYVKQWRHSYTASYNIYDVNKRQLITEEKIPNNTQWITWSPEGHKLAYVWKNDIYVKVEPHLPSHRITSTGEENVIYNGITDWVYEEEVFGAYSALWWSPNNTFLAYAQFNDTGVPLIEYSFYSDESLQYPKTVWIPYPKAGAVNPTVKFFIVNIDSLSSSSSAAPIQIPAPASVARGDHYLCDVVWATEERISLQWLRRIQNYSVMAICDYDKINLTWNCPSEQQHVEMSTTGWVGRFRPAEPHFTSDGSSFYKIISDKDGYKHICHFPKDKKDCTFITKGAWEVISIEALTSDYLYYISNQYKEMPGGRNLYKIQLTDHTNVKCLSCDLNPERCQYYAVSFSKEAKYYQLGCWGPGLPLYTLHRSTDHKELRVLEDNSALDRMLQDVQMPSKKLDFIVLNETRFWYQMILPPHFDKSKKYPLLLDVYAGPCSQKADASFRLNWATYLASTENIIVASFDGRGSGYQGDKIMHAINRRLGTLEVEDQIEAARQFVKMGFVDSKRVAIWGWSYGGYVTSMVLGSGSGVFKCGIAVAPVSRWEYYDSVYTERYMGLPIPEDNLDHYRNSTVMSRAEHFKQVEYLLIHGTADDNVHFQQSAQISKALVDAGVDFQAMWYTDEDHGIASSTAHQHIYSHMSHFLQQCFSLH

N#C[C@@H]1C[C@H](F)CN1C(=O)CNC12CCC(C(N)=O)(CC1)CC2 [Example 1, (2S,4S)-1-[[(4-carbamoylbicyclo[2.2.2]oct-1-yl)amino]acetyl]-4-fluoropyrrolidine-2-carbonitrile]
IC50 [1]: 0.89 nM
inhibition at 100 µg/mL (stock) [2]: 71%

N#C[C@@H]1C[C@H](F)CN1C(=O)CNC12CCC(C(=O)N3CCC3)(CC1)CC2 [Example 15, (2S,4S)-1-[[[4-(azetidin-1-yl)carbonylbicyclo[2.2.2]oct-1-yl]amino]acetyl]-4-fluoropyrrolidine-2-carbonitrile]
inhibition at 100 µg/mL (stock) [2]: 66%

CC(C)(C)NC(=O)C12CCC(NCC(=O)N3C[C@@H](F)C[C@H]3C#N)(CC1)CC2 [Example 30, (2S,4S)-1-[[N-[4-(N-2,2-dimethylethylamino)carbonylbicyclo[2.2.2]oct-1-yl]amino]acetyl]-4-fluoropyrrolidine-2-carbonitrile]
inhibition at 100 µg/mL (stock) [2]: 77%

CN1CCN(C(=O)C23CCC(NCC(=O)N4C[C@@H](F)C[C@H]4C#N)(CC2)CC3)CC1 [Example 8, (2S,4S)-4-fluoro-1-[[N-[4-(4-methylpiperazin-1-yl)carbonylbicyclo[2.2.2]oct-1-yl]amino]acetyl]pyrrolidine-2-carbonitrile]
IC50 [1]: 0.83 nM

CN(C)C(=O)C12CCC(NCC(=O)N3C[C@@H](F)C[C@H]3C#N)(CC1)CC2 [Example 9, (2S,4S)-1-[[N-[4-(dimethylamino)carbonylbicyclo[2.2.2]oct-1-yl]amino]acetyl]-4-fluoropyrrolidine-2-carbonitrile]
inhibition at 100 µg/mL (stock) [2]: 87%

C=CCNC(=O)C12CCC(NCC(=O)N3C[C@@H](F)C[C@H]3C#N)(CC1)CC2 [Example 52, (2S,4S)-4-fluoro-1-[[N-[4-[N-(2-propenyl)amino]carbonylbicyclo[2.2.2]oct-1-yl]amino]acetyl]pyrrolidine-2-carbonitrile]
IC50 [1]: 0.057 nM
inhibition at 100 µg/mL (stock) [2]: 70%

N#C[C@@H]1C[C@H](F)CN1C(=O)CNC12CCC(C(=O)N3CC[C@@H](F)C3)(CC1)CC2 [Example 16, (2S,4S,3′ R)-4-fluoro-1-[[N-[4-(3-fluoropyrrolidin-1-yl)carbonylbicyclo[2.2.2]oct-1-yl]amino]acetyl]pyrrolidine-2-carbonitrile]
IC50 [1]: 0.082 nM
